From PubChem BioAssay AID651892 (Broad Institute, 2012)
Calls of active or inactive are those of the source.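 How the source made its calls: active means IC50 below three times the IC50 of the reference antileishmanial control drug; inactive means the rest.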

Test system: L. donovani axenic amastigotes, Alamar Blue fluorescence, 72 h
Test: antileishmanial activity on axenic amastigotes – plate reader, dry powder, dose response (AID 651892)

For `C[C@@H]1CN([C@@H](C)CO)C(=O)c2cccc(NC(=O)c3ccncc3)c2O[C@H]1CN(C)Cc1ccc(Oc2ccccc2)cc1`, the IC50 was 40.5 µM (inactive).
